Results on one compound are retold here after patent publication US8969555B2, “Bicyclic pyrimidine compounds” (Eli Lilly and Company, priority 2013, dated 2015).

One experiment addresses T1, endogenous autotaxin (Homo sapiens, UniProt Q13822).
T1 construct: The increased endogenous LPC levels are cleaved by endogenous autotaxin; tissue Lampire Biologicals; host or cells: pooled human plasma (healthy female donors, sodium heparin)
The experiment is described as follows: Reduction of LPA in the Presence of Human Plasma. The format is biochemical. Particulars: 90% pooled human plasma, 3 hours at 37° C., total LPA by mass spec; arithmetic mean.

Experiment [1] deals with T2, recombinant human autotaxin (Homo sapiens, UniProt Q13822).
T2 construct: full length human autotaxin with a C-terminal His tag transfected into 293E cells; His tag (C); made in house; host or cells: 293E cells
The experiment is described as follows: Inhibition of Autotaxin as Measured by Choline Release. In kind it is biochemical. As to conditions: LPC 16:0 30 μM, 37° C. 1 hour, arithmetic mean.

As usually defined, the IC50 is the concentration that inhibits the measured activity by half. `O=C(COCCc1cnn[nH]1)N1CCc2nc(NC3Cc4ccccc4C3)ncc2C1` [Example 1 and 1a, 1-[2-(2,3-dihydro-1H-inden-2-ylamino)-7,8-dihydropyrido[4,3-d]pyrimidin-6(5H)-yl]-2-[2-(1H-1,2,3-triazol-4-yl)ethoxy]ethanone]: the IC50 at endogenous autotaxin came out at 10 nM; in experiment [1], 5.7 nM.
